From patent US20080026992A1, “Tyrosine Phosphorylation of Cdk Inhibitor Proteins of the Cip/Kip Family” (priority 2003, published 2008)

Legend:
Assay type in all cases: cell-based, human
K562 cells [1] = test: p27 stability in K562 cells (35S pulse-chase); details: 10 μM STI-571 for 16 hours
Protocol: (§1) HA-tagged p27 was transfected in 293T cells with a Bcr-Abl or Lyn encoding plasmids. […] Equal amounts of cell lysates were analyzed by Western blotting with monoclonal anti-phospho-Y88 antibodies and HRP-conjugated anti-p27 antibodies as indicated. b. […] Western blot analysis was performed with monoclonal anti-phospho-Y88 and HRP-conjugated anti-p27 antibodies. c. […] Cells (1×10^7/ml) were labeled with a ^35S labeled methionine/cysteine mix for 1 hour, and subsequently incubated in the absence of radioactivity for the indicated times. p27 was immunoprecipitated using anti-p27 antibodies. The labeled protein was visualized by autoradiography. The intensity of the bands was determined using a PhosphorImager and is expressed as a fraction of the time point 0. […] One representative experiment is shown.
(§2) Tyr-88 phosphorylation of p27 in a Bcr-Abl transformed tumor cell line was investigated next. K562 chronic myelogenous leukaemia cells express p210 Bcr-Abl kinase that is sensitive to inhibition with ST-571.

Lyn = test: p27 Tyr-88 phosphorylation in 293T cells transfected with Lyn (Western blot, anti-phospho-Y88); details: 10 μM STI-571
Protocol: as §1

K562 cells [2] = test: p27 protein level in K562 cells (Western blot); details: 2 or 10 μM STI-571 for 16 hours
Protocol: as §1, §2

K562 cells [3] = test: Cell cycle analysis by flow cytometry (BrdU/PI) of transfected K562 CML cells; details: moderate expression, 48 hours after transfection, GFP-sorted
Protocol: FIG. 9: p27 Y88F arrests K562 CML cells in G1 phase of the cell cycle. K562 CML cells were transfected with GFP and either 25 ug of p27 or 25 ug of p27-Y88F expression vector. 48 hours after transfection, cells with similar GFP expression level were isolated by flow cytometry cell sorting and the cell cycle distribution of these cells was determined using BrdU incorporation and PI staining. The distribution of these cells in the cell cycle phases is shown. Only p27-Y88F expression leads to an accumulation of G1 phase cells and reduced cells in S-phase.
The percentage of cells in the G1, S and G2/M phases of the cell cycle was determined by two dimensional flow cytometry. The DNA content was determined by staining DNA with the intercalating dye propidium iodide and quantifying the cell fractions with differing DNA content by flow cytometry. In addition, cells in S-phase were labelled with the nucleotide analog bromo 5-bromo-2′-deoxyuridine (BrdU), which is incorporated into newly synthesized DNA. […] Cells were analyzed on FACS ([…] Dickinson) flow cytometer using the CellQuest software. […]

| Molecule | p27 stability (K562 cells [1]) | Tyr-88 phosphorylation of p27 by Lyn (Lyn) | p27 protein level (K562 cells [2]) | S-phase entry (K562 cells [3]) | effect on cell cycle / accumulation of cells in G1 phase (K562 cells [3]) |
| --- | --- | --- | --- | --- | --- |
| Cc1ccc(NC(=O)c2ccc(CN3CCN(C)CC3)cc2)cc1Nc1nccc(-c2cccnc2)n1 [STI-571, 4-[(4-Methyl-1-piperazinyl)methyl]-N-[4-methyl-3-[[4-(3-pyridinyl)-2-pyrimidinyl]amino]-phenyl] benzamide methane sulfonate] | increase | no effect | dramatic increase |  |  |
| p27-Y88F: mutant of p27 where tyrosine 88 is exchanged to phenylalanine |  |  |  | impaired | increasing cells accumulating in G1 phase |
